# From patent US4160829A, “Antibacterial 1,2,4-oxadiazolylacetamido cephalosporins” (Gist-Brocades N.V., priority 1972, dated 1979)
# Like-named read-outs stand apart in the source and are kept apart here.
# Tests used:
# Salm.typh. R 127 = assay: agar serial dilution test; type: cell-based; conditions: 24 h, 37° C., read-out: minimal inhibitory concentration (MIC)
# Salm.dubl. P 43 = assay: agar serial dilution test; type: cell-based, Salmonella dublin; conditions: Salmonella enterica, read-out: minimal inhibitory concentration (MIC)
# Staph.aureus A 2000 [1] = assay: agar serial dilution test; type: cell-based, Staphylococcus aureus; conditions: Staphylococcus aureus, A2000, 24 h, agar serial dilution, 24 hours, 37° C.; read-out: minimal inhibitory concentration (MIC)
# Kleb.pneum. A 809 = assay: agar serial dilution test; type: cell-based, Klebsiella pneumoniae; conditions: Klebsiella pneumoniae; agar serial dilution, 24 hours, 37° C.; read-out: minimal inhibitory concentration (MIC)
# Bruc.melit. A 488 = assay: microbe, parasite or virus in culture; type: cell-based; conditions: Brucella melitensis, 24 h, read-out: minimal inhibitory concentration (MIC)
# Prot.mirab. A 1200 = assay: agar serial dilution test; type: cell-based, Proteus mirabilis; conditions: Proteus mirabilis, 24 h, agar serial dilution, 24 hours, 37° C.; read-out: minimal inhibitory concentration (MIC)
# Past.multo. A 723 = assay: agar serial dilution test; type: cell-based, Pasteurella multocida; conditions: Pasteurella multocida; agar serial dilution, 24 hours, 37° C.; read-out: minimal inhibitory concentration (MIC)
# Pseud.aerug. H 10 = assay: agar serial dilution test; type: cell-based; conditions: agar serial dilution, 24 hours, 37° C.; read-out: minimal inhibitory concentration (MIC)
# Staph.aureus A 2001 [2] = assay: agar serial dilution test; type: cell-based, Staphylococcus aureus; conditions: Staphylococcus aureus, A2001, 24 h, agar serial dilution, 24 hours, 37° C.; read-out: minimal inhibitory concentration (MIC)
# Esch.coli U 20 = assay: agar serial dilution test; type: cell-based, Escherichia coli; conditions: Escherichia coli, U20; agar serial dilution, 24 hours, 37° C.; read-out: minimal inhibitory concentration (MIC)
# [3] = test system: Pseud.aerug. Wyeth A 1058; assay: agar serial dilution test; type: cell-based; conditions: agar serial dilution, 24 hours, 37° C.; read-out: minimal inhibitory concentration (MIC)
# Prot.rettg. A 821 = assay: agar serial dilution test; type: cell-based, Proteus rettgeri; conditions: Providencia rettgeri, 24 h, read-out: minimal inhibitory concentration (MIC)
# Strep. faec. L 80 = assay: agar serial dilution test; type: cell-based, Streptococcus faecalis; conditions: Enterococcus faecalis; agar serial dilution, 24 hours, 37° C.; read-out: minimal inhibitory concentration (MIC)
# Prot.morg. 2241 = assay: agar serial dilution test; type: cell-based; conditions: 24 h, agar serial dilution, 24 hours, 37° C.; read-out: minimal inhibitory concentration (MIC)
# Haem.infl. A 1030 = assay: micro serial dilution test; type: cell-based; conditions: 18 h, micro serial dilution (in brackets), about 18 hours, 30° C. or 37° C.; read-out: minimal inhibitory concentration (MIC)
# Prot.mirab. H 3 = assay: agar serial dilution test; type: cell-based, Proteus mirabilis; conditions: Proteus mirabilis
# Shig.equir. T 3 = assay: agar serial dilution test; type: cell-based; conditions: 24 h, 37° C., read-out: minimal inhibitory concentration (MIC)
# Bac.Subt.ATCC 6633 = assay: agar serial dilution test; type: cell-based, Bacillus subtilis; conditions: Bacillus subtilis, ATCC6633, 24 h, agar serial dilution, 24 hours, 37° C.; read-out: minimal inhibitory concentration (MIC)
# Dipl.pneum. L 54 = assay: agar serial dilution test; type: cell-based, Diplococcus pneumoniae; conditions: Streptococcus pneumoniae; agar serial dilution, 24 hours, 37° C.; read-out: minimal inhibitory concentration (MIC)
# Strep.haem. A 266 = assay: agar serial dilution test; type: cell-based, Streptococcus haemolyticus; conditions: Streptococcus; agar serial dilution, 24 hours, 37° C.; read-out: minimal inhibitory concentration (MIC)
# Staph.aureus A 355 [4] = assay: agar serial dilution test; conditions: Staphylococcus aureus, A355, 24 h, read-out: minimal inhibitory concentration (MIC), agar serial dilution, 24 hours, 37° C.; penicillinase-producing strain
# Pseud.aerug. 2396 = assay: agar serial dilution test; type: cell-based; conditions: agar serial dilution, 24 hours, 37° C.; read-out: minimal inhibitory concentration (MIC)
# Prot.mirab. L 93 = assay: agar serial dilution test; type: cell-based, Proteus mirabilis; conditions: Proteus mirabilis
# Staph.aureus A 321 = assay: agar serial dilution test; type: cell-based, Staphylococcus aureus; conditions: Staphylococcus aureus, A321, 24 h, agar serial dilution, 24 hours, 37° C.; read-out: minimal inhibitory concentration (MIC)
# Staph.aureus A 355 [5] = assay: micro serial dilution test; type: cell-based, Staphylococcus aureus; conditions: Staphylococcus aureus, A355; micro serial dilution (in brackets), about 18 hours, 30° C. or 37° C.; penicillinase-producing strain; read-out: minimal inhibitory concentration (MIC)
# Description: Two drops of a stock solution of the test compound (antibiotic) in a known concentration were brought into the first hole of a test plate with 9 numbered holes with a sterile Pasteur pipette. After rinsing this pipette three times with a physiological NaCl-solution, two drops of a stock solution of the test organism in a culture medium were brought in all the holes except for hole 8. In the first hole, the solution of the tested compound had been half diluted, then by stirring the liquid in the first hole and adding two drops of this mixture to the second hole and so on until hole 8, dilutions of the test compound solution were obtained in geometrical progression. The hole 9 contained no antibiotic and served for checking the growth of the testogranism in a blank medium. The test plate was incubated at 30° C. or 37° C. for about 18 hours.
# ^1 Penicillinase-producing strain
# Staph.aureus A 2001 [6] = assay: micro serial dilution test; type: cell-based, Staphylococcus aureus; conditions: Staphylococcus aureus, A2001, 18 h, micro serial dilution (in brackets), about 18 hours, 30° C. or 37° C.; read-out: minimal inhibitory concentration (MIC)
# Staph.aureus A 2000 [7] = assay: micro serial dilution test; type: cell-based, Staphylococcus aureus; conditions: Staphylococcus aureus, A2000, 18 h, micro serial dilution (in brackets), about 18 hours, 30° C. or 37° C.; read-out: minimal inhibitory concentration (MIC)
# [8] = agar serial dilution, 24 hours, 37° C.
# [9] = agar serial dilution, 24 hours, 37° C., read-out: minimal inhibitory concentration (MIC)
# [10] = 24 h, read-out: minimal inhibitory concentration (MIC), agar serial dilution, 24 hours, 37° C.
SMILES,MIC (Salm.typh. R 127),MIC (Salm.dubl. P 43; [8]),MIC (Staph.aureus A 2000 [1]),MIC (Kleb.pneum. A 809),MIC (Bruc.melit. A 488),MIC (Prot.mirab. A 1200),MIC (Past.multo. A 723),MIC (Pseud.aerug. H 10),MIC (Staph.aureus A 2001 [2]),MIC (Esch.coli U 20),MIC [3],MIC (Strep. faec. L 80),MIC (Prot.morg. 2241),MIC (Haem.infl. A 1030),MIC (Shig.equir. T 3),MIC (Bac.Subt.ATCC 6633),MIC (Strep.haem. A 266),MIC (Staph.aureus A 355 [4]),MIC (Pseud.aerug. 2396),MIC (Staph.aureus A 321),also measured
"Cc1noc(C(C)C(=O)N[C@@H]2C(=O)N3[C@@H]2SC(C)(C)[C@@H]3C(=O)O)n1 (mixture of isomers) [Example 11H, dl-6[α-methyl-(3-methyl-1,2,4-oxadiazol-5-yl)-acetamido]-penicillanic acid]",100 µg/mL,50 µg/mL,6 µg/mL,> 100 µg/mL,0.25 µg/mL,> 100 µg/mL,1.5 µg/mL,> 100 µg/mL,3 µg/mL,≥ 100 µg/mL,> 100 µg/mL,6 µg/mL,> 100 µg/mL,3.7 µg/mL,25 µg/mL,0.06 µg/mL,0.5 µg/mL,12.5 µg/mL,> 100 µg/mL,0.25 µg/mL,MIC (Prot.rettg. A 821; [8]): 12.5 µg/mL; MIC (Prot.mirab. H 3; [9]): > 100 µg/mL; MIC (Dipl.pneum. L 54): 0.25 µg/mL; MIC (Prot.mirab. L 93; [9]): 6 µg/mL
"CC(=O)OCC1=C(C(=O)O)N2C(=O)[C@@H](NC(=O)C(C)c3nc(C)no3)[C@H]2SC1 (mixture of isomers) [Example 11I, dl-7-[α-methyl-(3-methyl-1,2,4-oxadiazol-5-yl)-acetamido]-cephalosporanic acid]",25 µg/mL,,1.5 µg/mL,6 µg/mL,6 µg/mL,25 µg/mL,1.5 µg/mL,> 100 µg/mL,1.5 µg/mL,50 µg/mL,> 100 µg/mL,75 µg/mL,> 100 µg/mL,> 125 µg/mL,12.5 µg/mL,0.12 µg/mL,0.25 µg/mL,3 µg/mL,> 100 µg/mL,1 µg/mL,MIC (Staph.aureus A 355 [5]): 1.2 µg/mL; MIC (Salm.dubl. P 43; 24 h): 12.5 µg/mL; MIC (Staph.aureus A 2001 [6]): 1.2 µg/mL; MIC (Prot.rettg. A 821; [8]): 6 µg/mL; MIC (Prot.mirab. H 3; [10]): 12.5 µg/mL; MIC (Staph.aureus A 2000 [7]): 1.2 µg/mL; MIC (Prot.mirab. L 93; [10]): 12.5 µg/mL
"CCc1noc(C(C)C(=O)N[C@@H]2C(=O)N3C(C(=O)O)=C(COC(C)=O)CS[C@H]23)n1 (mixture of isomers) [Example 11K, dl-7-[α-methyl-(3-ethyl-1,2,4-oxadiazol-5-yl)-acetamido]-cephalosporanic acid]",> 100 µg/mL,100 µg/mL,1.5 µg/mL,6 µg/mL,12.5 µg/mL,> 100 µg/mL,1.5 µg/mL,> 100 µg/mL,1 µg/mL,> 100 µg/mL,> 100 µg/mL,100 µg/mL,> 100 µg/mL,125 µg/mL,25 µg/mL,0.25 µg/mL,0.06 µg/mL,1.5 µg/mL,> 100 µg/mL,1.5 µg/mL,MIC (Staph.aureus A 355 [5]): 0.9 µg/mL; MIC (Staph.aureus A 2001 [6]): 0.9 µg/mL; MIC (Prot.rettg. A 821): 12.5 µg/mL; MIC (Prot.mirab. H 3; [9]): > 100 µg/mL; MIC (Dipl.pneum. L 54): 1 µg/mL; MIC (Staph.aureus A 2000 [7]): 1.2 µg/mL; MIC (Prot.mirab. L 93; [10]): 12.5 µg/mL
"CC1=C(C(=O)O)N2C(=O)[C@@H](NC(=O)Cc3nc(-c4c(Cl)cccc4Cl)no3)[C@H]2SC1 [Example 11E, 7-{[3-(2,6-dichlorophenyl)-1,2,4-oxadiazol-5-yl]-acetamido}desacetoxycephalosporanic acid]",> 100 µg/mL,> 100 µg/mL,0.75 µg/mL,100 µg/mL,50 µg/mL,> 100 µg/mL,25 µg/mL,> 100 µg/mL,1 µg/mL,> 100 µg/mL,> 100 µg/mL,12.5 µg/mL,> 100 µg/mL,125 µg/mL,> 100 µg/mL,1 µg/mL,0.25 µg/mL,0.75 µg/mL,> 100 µg/mL,0.5 µg/mL,MIC (Staph.aureus A 355 [5]): 0.25 µg/mL; MIC (Staph.aureus A 2001 [6]): 0.25 µg/mL; MIC (Prot.rettg. A 821; [8]): > 100 µg/mL; MIC (Prot.mirab. H 3; [9]): > 100 µg/mL; MIC (Staph.aureus A 2000 [7]): 3.7 µg/mL; MIC (Prot.mirab. L 93; [9]): > 100 µg/mL
"CCc1noc(CC(=O)N[C@@H]2C(=O)N3C(C(=O)O)=C(COC(C)=O)CS[C@H]23)n1 [Example 11L, 7-[(3-ethyl-1,2,4-oxadiazol-5-yl)-acetamido]-cephalosporanic acid]",6 µg/mL,3 µg/mL,1 µg/mL,1.5 µg/mL,6 µg/mL,25 µg/mL,2 µg/mL,> 100 µg/mL,1 µg/mL,6 µg/mL,> 100 µg/mL,50 µg/mL,> 100 µg/mL,≥ 125 µg/mL,3 µg/mL,0.12 µg/mL,0.25 µg/mL,1 µg/mL,> 100 µg/mL,0.25 µg/mL,MIC (Prot.rettg. A 821; [8]): 1 µg/mL; MIC (Prot.mirab. H 3; [9]): 50 µg/mL; MIC (Dipl.pneum. L 54): 1 µg/mL; MIC (Prot.mirab. L 93; [9]): 3 µg/mL
"CCc1noc(C(C)C(=O)N[C@@H]2C(=O)N3[C@@H]2SC(C)(C)[C@@H]3C(=O)O)n1 (stereo partly drawn) [Example 11M, sodium 6-[α-methyl-(3-ethyl-1,2,4-oxadiazol-5-yl)-acetamido]-penicillanate H2 O]",> 100 µg/mL,50 µg/mL,6 µg/mL,> 100 µg/mL,0.5 µg/mL,> 100 µg/mL,1 µg/mL,> 100 µg/mL,6 µg/mL,> 100 µg/mL,> 100 µg/mL,6 µg/mL,> 100 µg/mL,3.7 µg/mL,50 µg/mL,0.06 µg/mL,0.5 µg/mL,12.5 µg/mL,> 100 µg/mL,0.12 µg/mL,MIC (Prot.rettg. A 821; [8]): 3 µg/mL; MIC (Prot.mirab. H 3; [9]): > 100 µg/mL; MIC (Dipl.pneum. L 54): 0.5 µg/mL; MIC (Prot.mirab. L 93; [9]): 25 µg/mL
